From publication PMC12040169 (PLOS Biology, 2025)
Peptide text beside a SMILES is read from it. * marks the point of attachment. Hydrocinnamoyl = O=C(CCc1ccccc1)*

Assay: in vitro
Conditions: human, hela cells, % viability

SMILES | viability at 28.5 h, 10 µM [%]
O=C(O)CNC(=O)CCn1c(-c2ccccc2)cc2ccccc21 [CBK286780] | 99.2
CCn1cc(C(=O)N[C@H](C(=O)O)C(C)C)c(=O)c2cc3c(cc21)OCO3 [CBK286786] | 110
O=C(CC(CN1CCN(c2cccc(Cl)c2)CC1)C(=O)O)NCc1ccccc1 (stereo not drawn) [CBK286787] | 100
COc1cccc(NC(=O)CC(CN2CCN(c3ccccc3)CC2)C(=O)O)c1 (stereo not drawn) [CBK286789] | 90.7
CN1CCCN(CC(CC(=O)NCc2ccccc2)C(=O)O)CC1 (stereo not drawn) [CBK286791] | 86.6
Cn1c(=O)c2c(nc(Nc3ccc(Cl)cc3Cl)n2CC(=O)O)n(C)c1=O [CBK286792] | 90.5
CC1CC(C)CN(C(=O)NCCCCCC(=O)O)C1 (stereo not drawn) [CBK286793] | 89
O=C(COc1ccc(Br)cc1C(=O)O)NCCc1ccccc1 [CBK286796] | 95.3
COc1cccc(-c2nc(CC(=O)N3CCC(C(=O)O)CC3)cs2)c1 [CBK286797] | 92.3
O=C(O)C1CCN(C(=O)CCC2CCCCC2)CC1 [CBK286804] | 89.3
O=C(O)c1c2c(nc3ccccc13)CCN(Cc1ccccc1)C2 [CBK286805] | 87.4
Cc1cc(C)n(C(CC(=O)N2CCCCC2)C(=O)O)n1 (stereo not drawn) [CBK286806] | 85.6
CCn1cc(NCc2ccccc2Cl)c(C(=O)O)n1 [CBK286807] | 95.2
O=C(O)CC(C(=O)Nc1ccccc1)C1CCCO1 (stereo not drawn) [CBK286809] | 93
Cc1nc(OCC(=O)O)c(C#N)c2c1COC(C)(C)C2 [CBK286810] | 89.4
O=C(CC(CN1CCN(Cc2cccc(Cl)c2)CC1)C(=O)O)Nc1cccc(O)c1 (stereo not drawn) [CBK286811] | 88.9
O=C(O)C1CCCN(C(=O)Cn2ccc3ccc(OCc4ccccc4)cc32)C1 (stereo not drawn) [CBK286814] | 89.6
Cc1nc2n(c(=O)c1CCSc1ccccc1C(=O)O)CCCC2 [CBK286818] | 102
C[C@@H]1C[C@H](Nc2ccccc2)c2ccccc2N1C(=O)CCC(=O)O [CBK286820] | 95.8
COc1ccccc1N1CCN(CC(CC(=O)Nc2ccc3c(c2)OCO3)C(=O)O)CC1 (stereo not drawn) [CBK286822] | 95
O=C(O)c1ccccc1NC(=O)N1CCc2[nH]cnc2C1c1cccc(F)c1 (stereo not drawn) [CBK286824] | 93.7
O=C(O)c1nccnc1C(=O)N1CCN(c2ccc(Cl)cc2)CC1 [CBK286826] | 89.4

SMILES | viability at 28.5 h, 10 µM [%]
O=C(O)CC1NC(=O)C(Cc2ccccc2)NC1=O (stereo not drawn) [CBK286827] | 98.1
O=C(O)C1=CC(c2ccccc2)=NS(=O)(=O)N1 [CBK286828] | 108
Cc1cc(=O)oc2cc(OC(C)C(=O)NCC(=O)O)ccc12 (stereo not drawn) [CBK286829] | 106
CC1(C)C(C(=O)O)C1C(=O)NCCc1ccc(O)cc1 (stereo not drawn) [CBK286832] | 104
O=C(CC(CN1CCN(CCN2CCCC2)CC1)C(=O)O)Nc1ccccc1 (stereo not drawn) [CBK286833] | 109
C=C(C)CN1CCN(C(C(=O)O)c2c[nH]c3cc(F)ccc23)CC1 (stereo not drawn) [CBK286835] | 106
N#CC(CC(=O)O)C(Cc1ccccc1)c1ccccc1 (stereo not drawn) [CBK286837] | 107
O=C(O)CC(Cc1ccccc1)C(=O)Nc1ccc(F)cc1 (stereo not drawn) [CBK286841] | 96.1
COc1cccc(NC(=O)CC(CN2CCC(O)CC2)C(=O)O)c1 (stereo not drawn) [CBK286842] | 93
O=C(O)C1C2CCC(O2)C1C(=O)Nc1cnn(Cc2ccccc2)c1 (stereo not drawn) [CBK286849] | 96
CC1=CC(C)C(C(=O)O)C(C(=O)Nc2ccccc2)C1 (stereo not drawn) [CBK286851] | 90.4
O=C(CC1(C(=O)O)CCCC1)NC1CCS(=O)(=O)C1 (stereo not drawn) [CBK286855] | 92.3
O=C(O)CCC(=O)N1c2ccccc2CC1c1ccccc1 (stereo not drawn) [CBK286860] | 91.1
Cc1ccc2nc(SCCC(=O)O)cc(C)c2c1 [CBK286861] | 90.1
Cc1ccc(C(=O)O)cc1NC(=O)C(=O)NCC(c1ccccc1)N1CCN(C)CC1 (stereo not drawn) [CBK286864] | 92.4
O=C(CC(CN1CCN(Cc2ccccn2)CC1)C(=O)O)NCc1ccccc1 (stereo not drawn) [CBK286865] | 81.2
O=C(O)CC1(CNC(=O)Cn2nc(-c3ccccc3)ccc2=O)CCCCC1 [CBK286866] | 84.1
CCn1ncc(CN2CCN(C(=O)c3nn(C)cc3C(=O)O)CC2)c1C [CBK286870] | 89.3
Cn1c(C(=O)O)cc2cc(Oc3ccccc3)ccc21 [CBK286873] | 86.3
O=C(O)CNC(=O)CNC(=O)CCc1ccccc1 [CBK286874] (Hydrocinnamoyl-Gly-Gly-OH) | 87.1
Cc1nn(-c2ccccc2)c(C)c1CNC(=O)C1C2C=CC(C2)C1C(=O)O (stereo not drawn) [CBK286877] | 90.4
Cc1nn(C)c(C)c1CN(C)C(=O)CCCC(=O)O [CBK286879] | 82.8

SMILES | viability at 28.5 h, 10 µM [%]
O=C(O)CCn1c(=O)cc(C(F)F)c2cn(Cc3ccccc3)nc21 [CBK286881] | 91.3
O=C(O)COCc1cc(-c2ccc3c(c2)OCO3)on1 [CBK286883] | 110
CCn1nc(C)c(CN(C)C(=O)C2CC=CCC2C(=O)O)c1C (stereo not drawn) [CBK286884] | 86.1
O=C(O)CCc1nc2nc(-c3ccco3)cc(C(F)(F)F)n2n1 [CBK286889] | 86
CC1Cc2ccccc2N1C(=O)C1C2C=CC(O2)C1C(=O)O (stereo not drawn) [CBK286891] | 86.9
O=C(O)c1ccc(CSc2nc3ccccc3[nH]2)cc1 [CBK286892] | 82
CCC1CC(C(F)(F)F)n2ncc(C(=O)O)c2N1 (stereo not drawn) [CBK286893] | 85.2
O=C(O)CNC(=O)c1ccccc1NC(=O)c1ccco1 [CBK286894] | 90.2
O=C(O)C1CCN(C(=O)CCC(=O)N2CCN(c3ccccc3)CC2)CC1 [CBK286896] | 93.9
CC(C)CN1C(=O)c2ccc(C(=O)NCc3ccc(C(=O)O)cc3)cc2C1=O [CBK286898] | 116
CC1CN(CCC(=O)O)Cc2cc(Cl)ccc2O1 (stereo not drawn) [CBK286899] | 103
O=C(O)/C=C/c1ccccc1OCC(=O)NC1CCCCC1 [CBK286900] | 99.8
O=C(O)C1CC(=O)N(c2cccc3ccccc23)C1 (stereo not drawn) [CBK286902] | 88.8
O=C(O)C1CCCCC1C(=O)NCCCN1CCOCC1 (stereo not drawn) [CBK286903] | 83.4
O=C(O)C1=CC(c2c[nH]nc2-c2ccc(F)cc2)n2ncnc2N1 (stereo not drawn) [CBK286906] | 86.2
COc1ccc(Cl)cc1/C=C/C(=O)NCc1ccc(C(=O)O)cc1 [CBK286908] | 89.3
O=C(O)CC(NCc1ccco1)C(=O)Nc1cccc(F)c1 (stereo not drawn) [CBK286910] | 97
O=C(O)COc1cccc(NS(=O)(=O)c2ccc(Br)cc2)c1 [CBK286911] | 111
NC(CC(=O)O)c1ccc(F)c(Oc2ccccc2)c1 (stereo not drawn) [CBK286912] | 101
O=C(O)C1CCCCC1C(=O)NCCCN1CCCC1=O (stereo not drawn) [CBK286914] | 83.1
CN1CCN(NC(=O)C2C3C=CC(C3)C2C(=O)O)CC1 (stereo not drawn) [CBK286915] | 90.1
O=C(O)CCNS(=O)(=O)c1ccc2ccccc2c1 [CBK286920] | 98.6
